Source: US11384060B2, “Amide compounds and use thereof” (ALPHALA CO., LTD., priority 2017, dated 2022)

What was measured:
[1] = biological target: T1, glucagon receptor (GCGR) overexpressed CHO-K1 cells or human primary hepatocytes (Homo sapiens, UniProt P47871); assay: Glucagon cAMP inhibition assay (Cisbio cAMP Dynamic 2 HTRF); type: cell-based; settings: inhibition of glucagon (EC50 concentration) induced cAMP production
T1 construct: expressed in transfected cells; host or cells: GCGR overexpressed CHO-K1 cells or human primary hepatocytes (endogenous receptor)
T1 sequence (P47871 26-477): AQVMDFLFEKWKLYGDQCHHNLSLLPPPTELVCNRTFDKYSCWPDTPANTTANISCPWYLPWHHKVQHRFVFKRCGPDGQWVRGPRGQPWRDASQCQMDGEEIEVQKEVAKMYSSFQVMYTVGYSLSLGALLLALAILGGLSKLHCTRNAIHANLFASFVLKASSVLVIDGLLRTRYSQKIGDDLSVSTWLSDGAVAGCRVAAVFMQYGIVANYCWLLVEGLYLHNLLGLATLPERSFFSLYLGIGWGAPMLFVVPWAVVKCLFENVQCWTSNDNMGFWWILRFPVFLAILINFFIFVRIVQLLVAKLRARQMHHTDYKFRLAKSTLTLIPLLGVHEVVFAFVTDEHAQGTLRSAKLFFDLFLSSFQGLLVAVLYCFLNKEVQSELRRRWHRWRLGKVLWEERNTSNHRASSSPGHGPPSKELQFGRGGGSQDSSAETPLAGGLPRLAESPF
In short: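 GCGR-overexpressing CHO-K1 cells or human primary hepatocytes in HBSS with 0.1% BSA and 800 nM IBMX, pre-incubated 30 min with serially diluted compounds (1% DMSO final), then stimulated 30 min at room temperature with glucagon at its EC50. cAMP measured by HTRF after 60 min lysis; IC50 by non-linear regression.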

glucagon receptor (GCGR) = biological target: T2, glucagon receptor (GCGR) (Homo sapiens, UniProt P47871); assay: I125-glucagon binding assay (competition, GCGR membrane fractions)
T2 construct: expressed in transfected cells; host or cells: CHO-K1 cells overexpressing GCGR (membrane fractions)
T2 sequence (P47871 26-477): as above
In short: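 Membranes from CHO-K1 cells overexpressing GCGR, 7.5 μg/well in 50 mM Tris pH 7.4 with 0.5% BSA, were preincubated 5 min with serially diluted compounds, then given 0.0625 nM final I^125-glucagon for 30 min at 25° C. Bound label was filtered on PEI-coated GF/B and counted; IC50 by non-linear regression.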

[2] = competition with I125-glucagon 0.0625 nM, membrane fractions of GCGR overexpressed CHO-K1 cells

Row | SMILES | IC50 cAMP [1] [nM] | IC50 (glucagon receptor (GCGR); [2]) [µM] | inhibition at 30 µM (glucagon receptor (GCGR); compound at the concentration of 30 μM, read-out: percentage of inhibition (binding)) [%] | IC50 (glucagon receptor (GCGR); cell prints its own unit uM under a nM head) [µM]
1 | CC(C)[C@@H](COc1ccc(-c2ccc(N(C)C)cc2Cl)cc1)Nc1ccc(C(=O)NCCC(=O)O)cc1 [Compound 1-37, (S)-3-(4-((1-((2′-chloro-4′-(dimethylamino)-[1,1′-biphenyl]-4-yl)oxy)-3-methylbutan-2-yl)amino)benzamido)propanoic Acid] | 376 | 0.372 | – | –
2 | CC[C@H](C)[C@@H](COc1ccc(-c2ccc(OC)cc2Cl)cc1)Nc1ccc(C(=O)NCCC(=O)O)cc1 [Compound 1-38, 3-(4-(((2S,3S)-1-((2′-chloro-4′-methoxy-[1,1′-biphenyl]-4-yl)oxy)-3-methylpentan-2-yl)amino)benzamido)propanoic Acid] | 203 | 0.172 | – | –
3 | CC(C)[C@@H](COc1ccc(-c2cn3ccccc3n2)cc1)Nc1ccc(C(=O)NCCC(=O)O)cc1 [Compound 1-39, (S)-3-(4-((1-(4-(imidazo[1,2-a]pyridin-2-yl)phenoxy)-3-methylbutan-2-yl)amino)benzamido)propanoic Acid] | 17895 | 3.81 | – | –
4 | CC(C)(C)[C@@H](COc1ccc(-c2cc3ccccc3o2)cc1)Nc1ccc(C(=O)NCCC(=O)O)cc1 [Compound 1-40, (S)-3-(4-((1-(4-(benzofuran-2-yl)phenoxy)-3,3-dimethylbutan-2-yl)amino)benzamido)propanoic Acid] | 235.3 | 0.195 | – | –
5 | CC(C)[C@@H](COc1ccc(-c2cc3ncccc3o2)cc1)Nc1ccc(C(=O)NCCC(=O)O)cc1 [Compound 1-41, (S)-3-(4-((1-(4-(furo[3,2-b]pyridin-2-yl)phenoxy)-3-methylbutan-2-yl)amino)benzamido)propanoic Acid] | 1403 | 0.227 | – | –
6 | CC(C)(C)[C@@H](COc1ccc(-c2ccc(C(F)(F)F)cc2Cl)cc1)Nc1ccc(C(=O)NCCC(=O)O)cc1 [Compound 1-42, (S)-3-(4-((1-((2′-chloro-4′-(trifluoromethyl)-[1,1′-biphenyl]-4-yl)oxy)-3,3-dimethylbutan-2-yl)amino)benzamido)propanoic aid] | 298 | 0.234 | – | –
7 | CC(C)[C@@H](COc1ccc(-c2nnc(C(F)(F)F)o2)cc1)Nc1ccc(C(=O)NCCC(=O)O)cc1 [Compound 1-43, 3-(4-((3-methyl-1-(4-(5-(trifluoromethyl)-1,3,4-oxadiazol-2-yl)phenoxy)butan-2-yl)amino)benzamido)propanoic Acid] | >30000 | 0.583 | – | –
8 | CCC(C)[C@@H](COc1ccc(-c2nnc(C(F)(F)F)o2)cc1)Nc1ccc(C(=O)NCCC(=O)O)cc1 (stereo partly shown) [Compound 1-44, 3-(4-((3-methyl-1-(4-(5-(trifluoromethyl)-1,3,4-oxadiazol-2-yl)phenoxy)pentan-2-yl)amino)benzamido)propanoic Acid] | 10000 | 0.388 | – | –
9 | CC[C@H](C)[C@@H](COc1ccc(-c2nnc(C(C)(C)C)o2)cc1)Nc1ccc(C(=O)NCCC(=O)O)cc1 [Compound 1-45, 3-(4-(((2S,3S)-1-(4-(5-(tert-butyl)-1,3,4-oxadiazol-2-yl)phenoxy)-3-methylpentan-2-yl)amino)benzamido)propanoic Acid] | 11981 | 1.52 | – | –
10 | CC[C@H](C)[C@@H](COc1ccc(-c2nnc(-c3ccccc3)o2)cc1)Nc1ccc(C(=O)NCCC(=O)O)cc1 [Compound 1-46, 3-(4-(((2S,3S)-3-methyl-1-(4-(5-phenyl-1,3,4-oxadiazol-2-yl)phenoxy)pentan-2-yl)amino)benzamido)propanoic Acid] | 5441 | 0.601 | – | –
11 | CCOC(=O)CCNC(=O)c1ccc(N[C@H](COc2ccc(-c3nc4ccccc4o3)cc2)C(C)C)cc1 [Compound 1-47, Ethyl (S)-3-(4-((1-(4-(benzo[d]oxazol-2-yl)phenoxy)-3-methylbutan-2-yl)amino)benzamido)propanoate] | 170 | > 30 | 56 | –
12 | CC(C)[C@@H](COc1ccc(-c2nc3ccccc3o2)cc1)Nc1ccc(C(=O)NCCC(=O)O)cc1 [Compound 1-48, (S)-3-(4-((1-(4-(benzo[d]oxazol-2-yl)phenoxy)-3-methylbutan-2-yl)amino)benzamido)propanoic Acid] | 546 | 0.138 | – | –
13 | CCCC[C@@H](COc1ccc(-c2nnc(C(C)(C)C)o2)cc1)Nc1ccc(C(=O)NCCC(=O)O)cc1 [Compound 1-49, (S)-3-(4-((1-(4-(5-(tert-butyl)-1,3,4-oxadiazol-2-yl)phenoxy)hexan-2-yl)amino)benzamido)propanoic Acid] | 7065 | 7.2 | – | –
14 | CCCC[C@@H](COc1ccc(-c2nnc(-c3ccccc3)o2)cc1)Nc1ccc(C(=O)NCCC(=O)O)cc1 [Compound 1-50, (S)-3-(4-((1-(4-(5-phenyl-1,3,4-oxadiazol-2-yl)phenoxy)hexan-2-yl)amino)benzamido)propanoic Acid] | 1622 | 0.715 | – | –
15 | CCOC(=O)CCNC(=O)c1ccc(N[C@@H](COc2ccc(-c3nc4ccccc4s3)cc2)C(C)C)cc1 [Compound 1-51, Ethyl (R)-3-(4-((1-(4-(benzo[d]thiazol-2-yl)phenoxy)-3-methylbutan-2-yl)amino)benzamido)propanoate] | 197 | – | – | > 30
16 | CC(C)[C@H](COc1ccc(-c2nc3ccccc3s2)cc1)Nc1ccc(C(=O)NCCC(=O)O)cc1 [Compound 1-52, (R)-3-(4-((1-(4-(benzo[d]thiazol-2-yl)phenoxy)-3-methylbutan-2-yl)amino)benzamido)propanoic Acid] | 377 | 0.089 | – | –
17 | CCOC(=O)CCNC(=O)c1ccc(N[C@@H](COc2ccc(-c3nc4ccccc4o3)cc2)C(C)C)cc1 [Compound 1-53] | 90 | 24.5 | – | –
18 | CC(C)[C@H](COc1ccc(-c2nc3ccccc3o2)cc1)Nc1ccc(C(=O)NCCC(=O)O)cc1 [Compound 1-54, (R)-3-(4-((1-(4-(benzo[d]oxazol-2-yl)phenoxy)-3-methylbutan-2-yl)amino)benzamido)propanoic Acid] | 213 | 0.095 | – | –

Other lines, results leading:

Row | IC50 cAMP [1] [nM] | IC50 (glucagon receptor (GCGR); [2]) [µM] | inhibition at 30 µM (glucagon receptor (GCGR); compound at the concentration of 30 μM, read-out: percentage of inhibition (binding)) [%] | IC50 (glucagon receptor (GCGR); cell prints its own unit uM under a nM head) [µM] | SMILES
19 | 322.9 | 0.266 | – | – | Cc1cc(OC[C@@H](Cc2ccccc2)Nc2ccc(C(=O)NCCC(=O)O)cc2)cc(C)c1-c1ccc(C(F)(F)F)cc1 [Compound 2-1, (R)-3-(4-((1-((2,6-dimethyl-4′-(trifluoromethyl)-[1,1′-biphenyl]-4-yl)oxy)-3-phenylpropan-2-yl)amino)benzamido)propanoic Acid]
20 | 474.8 | 0.378 | – | – | Cc1cc(OC[C@@H](Cc2ccccc2)Nc2ccc(C(=O)NCCC(=O)O)cc2)cc(C)c1-c1ccc(OC(F)(F)F)cc1 [Compound 2-2]
21 | 493 | 0.465 | – | – | Cc1cc(OC[C@H](CC(C)C)Nc2ccc(C(=O)NCCC(=O)O)cc2)cc(C)c1-c1ccc(OC(F)(F)F)cc1 [Compound 2-3, (S)-3-(4-((1-((2,6-dimethyl-4′-(trifluoromethoxy)-[1,1′-biphenyl]-4-yl)oxy)-4-methylpentan-2-yl)amino)benzamido)propanoic Acid]
22 | 245.8 | 0.091 | – | – | Cc1cc(OC[C@@H](Nc2ccc(C(=O)NCCC(=O)O)cc2)C(C)C)cc(C)c1-c1ccc(C(F)(F)F)cc1 [Compound 2-4, (S)-3-(4-((1-((2,6-dimethyl-4′-(trifluoromethyl)-[1,1′-biphenyl]-4-yl)oxy)-3-methylbutan-2-yl)amino)benzamido)propanoic Acid]
23 | 352 | 0.347 | – | – | Cc1cc(OC[C@@H](Nc2ccc(C(=O)NCCC(=O)O)cc2)C(C)C)cc(C)c1-c1ccc(C(C)(C)C)cc1 [Compound 2-5, (S)-3-(4-((1-((4′-(tert-butyl)-2,6-dimethyl-[1,1′-biphenyl]-4-yl)oxy)-3-methylbutan-2-yl)amino)benzamido)propanoic Acid]
24 | 448 | 0.067 | – | – | CC[C@H](C)[C@@H](COc1cc(C)c(-c2ccc(C(C)(C)C)cc2)c(C)c1)Nc1ccc(C(=O)NCCC(=O)O)cc1 [Compound 2-6, 3-(4-(((2S,3S)-1-((4′-(tert-butyl)-2,6-dimethyl-[1,1′-biphenyl]-4-yl)oxy)-3-methylpentan-2-yl)amino)benzamido)propanoic Acid]
25 | 468 | 0.158 | – | – | CC[C@H](C)[C@@H](COc1cc(C)c(-c2cc3ccccc3o2)c(C)c1)Nc1ccc(C(=O)NCCC(=O)O)cc1 [Compound 2-7, 3-(4-(((2S,3S)-1-(4-(benzofuran-2-yl)-3,5-dimethylphenoxy)-3-methylpentan-2-yl)amino)benzamido)propanoic Acid]
26 | 602 | 0.627 | – | – | CC[C@H](C)[C@@H](COc1cc(C)c(-c2ccc(OC(F)(F)F)cc2)c(C)c1)Nc1ccc(C(=O)NCCC(=O)O)cc1 [Compound 2-8, 3-(4-(((2S,3S)-1-((2,6-dimethyl-4′-(trifluoromethoxy)-[1,1′-biphenyl]-4-yl)oxy)-3-methylpentan-2-yl)amino)benzamido)propanoic Acid]
27 | 447.6 | 0.06 | – | – | CC[C@H](C)[C@@H](COc1cc(C)c(-c2ccc(Cl)cc2Cl)c(C)c1)Nc1ccc(C(=O)NCCC(=O)O)cc1 [Compound 2-9, 3-(4-(((2S,3S)-1-((2′,4′-dichloro-2,6-dimethyl-[1,1′-biphenyl]-4-yl)oxy)-3-methylpentan-2-yl)amino)benzamido)propanoic Acid]
